Patent publication US20250042857A1, “SOS1 Inhibitor With Pyrido-Fused Six-Membered Ring Structure” (HAIHE BIOPHARMA CO., LTD., priority 2021, published 2025)
Where two headings read alike, the source gives them in different places.

How the values were obtained:
KRAS-G12C/SOS1 = KRAS-G12C/SOS1 (Homo sapiens (Human), UniProt Q07889); assay: Detection of inhibitory effects of compounds on KRAS-G12C/SOS1 (KRASG12C/SOS binding kit, HTRF); conditions: Em665/620, read-out: IC50, inhibitory activity on interaction of KRAS-G12C/SOS1
From the text: Experimental objective: The inhibitory effects of the tested compounds on KRAS-G12C/SOS1 were detected. IC50 was used to characterize the inhibitory ability of the compounds on the KRAS-G12C/SOS1. The lower IC50 value indicated the stronger inhibitory ability. BI-3406 was used as a positive control compound.
Experimental reagents: KRASG12C/SOS binding kit (Cisbio, cat. 63ADK000CB16PEG); DMSO (Sigma, cat. D8418-1L); and 384-well white plate (PerkinElmer, cat. 6007290)
• 1. Preparation of compounds: the test compounds were dissolved in 100% DMSO to obtain 10 mM stock solutions and the stock solutions were stored in a refrigerator in the dark. • 2. Kinase reaction process:
Preparation of compounds: the test compounds had the concentration of 5,000 nM and diluted in a 384-well plate into a 100% DMSO solution at the 200-fold final concentration, and the compounds were diluted 3-fold with 10 concentrations. 50 nL of the compounds at the 200-fold final concentration were transferred to the plate of interest, the 384-well plate, using a dispenser Echo 550. 50 nL of 100% DMSO was added to each negative control well and positive control well.
A Tag1-SOS1 solution at the 4-fold final concentration was prepared using a diluent buffer.
2.5 μL of the Tag1-SOS1 solution at the 4-fold final concentration was added to the 384-well plate.
A Tag2-KRAS-G12C solution at the 4-fold final concentration was prepared using the diluent buffer.
2.5 μL of the Tag2-KRAS-G12C solution at the 4-fold final concentration was respectively added into compound wells and the positive control wells; and 2.5 μL of the diluent buffer was added to the negative control wells.
The 384-well plate was centrifuged at 1,000 rpm for 30 seconds, shaken and mixed uniformly, and incubated at room temperature for 15 minutes.
An Anti-Tag1-TB3+ solution at the 1-fold final concentration and an Anti-Tag2-XL665 solution at the 1-fold final concentration were prepared using a detection buffer, the two solutions were mixed uniformly to obtain a Mix solution, and 5 μL of the Mix solution was added into each well.
The 384-well plate was centrifuged at 1,000 rpm for 30 seconds, shaken and mixed uniformly, and incubated at 4° C. for 120 minutes.
Em665/620 was read using an Envision microplate reader.
Inhibition %=(Max signal−Compound signal)/(Max signal−Min signal)×100 Calculation formula • wherein the Min signal was the mean value of the negative control wells, and the Max signal was the mean value of the positive control wells.
A dose-response curve was fitted using the log value of the concentration as an X axis and the percentage of the inhibitory rate as a Y axis by using the log(inhibitor) vs. response-variable slope of an analytical software GraphPadPrism5, thereby obtaining the IC50 value of each compound on an enzyme activity.

p-ERK of PC-9 cells = assay: p-ERK HTRF assay in PC-9 cells; format: cell-based; conditions: PC-9 lung cancer cells, 1 hour treatment, read-out: IC50, inhibitory activity on p-ERK of PC-9 cells
Experimental: IC50 Values of Compounds Determined by p-ERK HTRF Assay in PC-9 Cells
Experimental objective: an inhibitory effect of the test compounds on the phosphorylation of PC-9ERK of lung cancer cells at a cellular level was evaluated by detecting the phosphorylation of ERK.
• PRMI 1640 medium (Invitrogen-11875093) • 0.25% pancreatin (Invitrogen-25200056) • Phosphoric acid buffer salt solution (PBS, pH 7.4) (Invitrogen-10010023) • Double-antibody (PS) (Invitrogen-15140122) • Fetal bovine serum (FBS) (Gibco-10091148) • Trypan blue (Gibco-15250061) • 10-cm culture dish (Corning-430167) • 10-mL pipette (Costar-4488) • Pipettor (Sartorius-17009031) • 15-mL centrifuge tube (Corning-430052) • 50-mL centrifuge tube (Corning-430829) • Cryotube (Thermo-377267) • 1.5-mL EP tube (Axygen-MCT-150-C-S) • Cell incubator (Thermo-371) • Microscope (Olympus-CKX41) • Centrifuge (Flying Pigeon-TDL-80-2B) • Cell counter (Countstar-IC-1000) • Envision (Perkin Elmer) • Spark 10M (TECAN) • Phospho-ERK1/2 (Thr202/Tyr204) Experimental kit (Cisbio, Cat. No. 64AERPEG) • PC-9 cells: RPMI1640+10% FBS+1% PS
• 1) PBS, 0.25% pancreatin, and a cell culture medium were placed in a water-bath kettle at 37° C. for preheating; • 2) cells were observed under a microscope, a fusion degree was evaluated, and no bacterial and fungi pollution was confirmed; • 3) a culture solution was removed, the cells were washed with 5 mL of PBS and digested with 2 mL of the 0.25% trypsin, the digestion was terminated with 10 mL of the fresh cell culture medium, a culture dish was rinsed, and the cells were transferred to a 15-mL centrifuge tube; • 4) the collected cells were centrifuged at 1,000 rpm for 5 minutes; • 5) after the centrifugation, the supernatant was discarded, the cells were resuspended in 5 mL of the cell culture medium, 20 μL of the resuspended cells were aspirated, and the number and viability of viable cells were recorded; • 6) the cell culture medium was used and the cell density was adjusted (PC-9:10,000 cells/well, and 45 μL per well); • 7) in a 384-well plate, 45 μL of a cell suspension per well was transferred according to an experimental design figure; and • 8) the cells were incubated overnight at 37° C. and 5% CO2.
• 1) The compounds were diluted from the stock concentration to 10 mM with 100% DMSO (Trametinib was diluted to 1 mM), then 3-fold diluted into 10 points (5 μL of the diluted compounds with the concentration of 10 mM were transferred to 10 μL of the DMSO in an LDV plate), and centrifuged at 1,000 rpm/min for 1 minute; • 2) 5 μL of the diluted compounds of step 1) were transferred to an inter plate 1 containing 45 μL of the cell culture medium (the compounds were diluted from 1,000× to 100×); • 3) 5 μL of the diluted compounds of step 2) were transferred to an inter plate 2 containing 45 μL of the cell culture medium (the compounds were diluted from 100× to 10×); • 4) 5 μL of the compounds were pipetted from the inter plate 2 into a cell culture plate (the compounds were diluted from 10 folds to 1 fold), the final concentrations of the test compounds were 10,000 nM, 3333.33 nM, 1111.11 nM, 370.37 nM, 123.46 nM, 41.15 nM, 13.72 nM, 4.57 nM, 1.52 nM, and […], the solution was centrifuged at 1,000 rpm/min for 1 minute, and the final content of the DMSO was 0.1%; and • 5) the cells were treated in an incubator at 37° C. for 1 hour. […]

Sequence of KRAS-G12C/SOS1 (Q07889 whole entry, stated change not applied): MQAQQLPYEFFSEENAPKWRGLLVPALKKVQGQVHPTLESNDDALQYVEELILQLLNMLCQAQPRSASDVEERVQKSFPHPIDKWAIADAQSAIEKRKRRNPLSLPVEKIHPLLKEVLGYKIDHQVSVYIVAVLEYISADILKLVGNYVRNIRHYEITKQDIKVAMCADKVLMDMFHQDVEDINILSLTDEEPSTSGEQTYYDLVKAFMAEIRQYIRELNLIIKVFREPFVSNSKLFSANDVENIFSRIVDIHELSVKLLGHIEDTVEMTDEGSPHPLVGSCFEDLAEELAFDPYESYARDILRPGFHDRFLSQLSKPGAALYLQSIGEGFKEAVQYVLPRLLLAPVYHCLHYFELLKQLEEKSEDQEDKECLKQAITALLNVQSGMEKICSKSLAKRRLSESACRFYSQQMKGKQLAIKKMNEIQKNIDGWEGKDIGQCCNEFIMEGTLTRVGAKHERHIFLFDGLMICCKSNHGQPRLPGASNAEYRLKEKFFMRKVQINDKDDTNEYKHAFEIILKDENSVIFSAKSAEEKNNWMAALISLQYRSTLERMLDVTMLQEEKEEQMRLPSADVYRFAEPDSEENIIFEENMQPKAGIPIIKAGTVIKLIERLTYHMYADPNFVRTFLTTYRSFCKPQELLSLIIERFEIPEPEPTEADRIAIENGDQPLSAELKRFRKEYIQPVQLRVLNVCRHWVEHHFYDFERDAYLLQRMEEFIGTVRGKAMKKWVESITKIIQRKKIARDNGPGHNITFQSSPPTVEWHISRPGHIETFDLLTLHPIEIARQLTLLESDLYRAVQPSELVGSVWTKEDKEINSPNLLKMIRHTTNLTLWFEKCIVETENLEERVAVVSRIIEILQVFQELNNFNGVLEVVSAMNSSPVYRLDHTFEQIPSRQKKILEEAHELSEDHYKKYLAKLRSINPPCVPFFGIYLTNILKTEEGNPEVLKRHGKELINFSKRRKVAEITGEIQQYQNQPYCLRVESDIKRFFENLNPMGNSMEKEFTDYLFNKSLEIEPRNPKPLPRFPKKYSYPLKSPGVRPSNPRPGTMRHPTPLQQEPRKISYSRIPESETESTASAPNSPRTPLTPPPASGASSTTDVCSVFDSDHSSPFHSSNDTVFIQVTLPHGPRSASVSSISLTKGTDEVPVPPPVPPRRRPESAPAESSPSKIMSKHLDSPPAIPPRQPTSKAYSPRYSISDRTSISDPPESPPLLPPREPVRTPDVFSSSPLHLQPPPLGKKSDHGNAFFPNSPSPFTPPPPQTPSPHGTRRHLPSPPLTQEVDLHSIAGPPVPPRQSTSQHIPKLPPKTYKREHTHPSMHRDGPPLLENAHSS

Row | IC50 (KRAS-G12C/SOS1) [nM] | IC50 (p-ERK of PC-9 cells; Homo sapiens, PC-9, 1 h) [nM] | IC50 (p-ERK of PC-9 cells) [nM] | SMILES
1 | ≤ 100 | > 1000 |  | C[C@@H](Nc1ccnc2cnc(C3(O)CCN(C(=O)CN4CCC(O)CC4)CC3)cc12)c1cccc(C(F)F)c1F [Compound B-149]
2 | ≤ 100 | > 1000 |  | C[C@@H](Nc1ccnc2cnc(C3(O)CCN(C(=O)CO)CC3)cc12)c1cccc(C#N)c1F [Compound B-167]
3 | ≤ 100 | > 1000 |  | C[C@@H](Nc1ccnc2cnc(C3(O)CCN(C(=O)[C@H]4C[C@H](O)CN4)CC3)cc12)c1cccc(C(F)F)c1F [Compound B-144]
4 | 100 to 500 | 300 to 1000 |  | COc1nc(C2(O)CCN(C(=O)[C@H](C)O)CC2)cc2c(N[C@H](C)c3cccc(C(F)F)c3F)ccnc12 [Compound B-174]
5 | ≤ 100 | ≤ 300 |  | C[C@H](O)C(=O)N1CCC(O)(c2cc3c(N[C@H](C)c4cccc(C(C)(F)F)c4F)ccnc3cn2)CC1 [Compound B-125]
6 | ≤ 100 | ≤ 300 |  | C[C@H](O)C(=O)N1CCC(O)(c2cc3c(N[C@H](C)c4cccc(C(F)F)c4F)ccnc3cn2)CC1 [Compound B-119]
7 | ≤ 100 |  | > 1000 | COc1nc(C2(O)CCC(O)CC2)cc2c(N[C@H](C)c3cccc(C(F)F)c3F)ccnc12 (single isomer, unassigned) [Compound B-178-P1]
8 | ≤ 100 | > 1000 |  | C[C@@H](Nc1ccnc2cnc(C3(O)CCN(C(=O)[C@@H]4CNCCO4)CC3)cc12)c1cccc(C(F)F)c1F [Compound B-137]
9 | ≤ 100 | ≤ 300 |  | C[C@@H](Nc1ccnc2cnc(C3(O)CCN(C(=O)C4(C#N)CC4)CC3)cc12)c1cccc(C(F)F)c1F [Compound B-127]
10 | ≤ 100 | ≤ 300 |  | C[C@@H](Nc1ccnc2cnc(C3(O)CCN(C(=O)C4COC4)CC3)cc12)c1cccc(C(F)F)c1F [Compound B-132]
11 | ≤ 100 | ≤ 300 |  | C[C@@H](Nc1ccnc2cnc(C3(O)CCN(C(=O)N(C)C)CC3)cc12)c1cccc(C(F)F)c1F [Compound B-160]
12 | ≤ 100 | 300 to 1000 |  | C[C@@H](Nc1ccnc2cnc(C3(O)CCN(C(=O)c4cccnc4)CC3)cc12)c1cccc(C(F)F)c1F [Compound B-130]
13 | ≤ 100 | ≤ 300 |  | C[C@@H](Nc1ccnc2cnc(C3(O)CCN(C(=O)CO)CC3)cc12)c1cccc(C(F)F)c1F [Compound B-113]
14 | ≤ 100 | 300 to 1000 |  | Cc1nnc(N2CCC(O)(c3cc4c(N[C@H](C)c5cccc(C(F)F)c5F)ccnc4cn3)CC2)o1 [Compound B-153]

More lines, now with the values behind:

Row | SMILES | IC50 (KRAS-G12C/SOS1) [nM] | IC50 (p-ERK of PC-9 cells; Homo sapiens, PC-9, 1 h) [nM] | IC50 (p-ERK of PC-9 cells) [nM]
15 | CC(=O)N1CCN(c2cc3c(N[C@H](C)c4cccc(C(F)F)c4F)ccnc3cn2)CC1 [Compound B-23] | ≤ 100 | ≤ 300 | 
16 | C[C@@H](Nc1ccnc2cnc(N3CCC(O)(CO)CC3)cc12)c1cccc(C(F)F)c1F [Compound B-74] | ≤ 100 | ≤ 300 | 
17 | CNC(=O)C1CCN(c2cc3c(N[C@H](C)c4cccc(C(F)F)c4F)ccnc3cn2)CC1 [Compound B-36] | ≤ 100 | ≤ 300 | 
18 | Cc1nc(N2CCCCS2(=O)=O)cc2c(N[C@H](C)c3cccc(C(F)F)c3F)ccnc12 [Compound B-65] | ≤ 100 | 300 to 1000 | 
19 | CC(=O)N1CCN(c2cc3c(N[C@H](C)c4cccc(C(F)F)c4F)ccnc3c(C)n2)[C@@H](CO)C1 [Compound B-63] | ≤ 100 | ≤ 300 | 
20 | CC(=O)N1CCC(c2cc(F)c3nccc(N[C@H](C)c4cccc(C(F)F)c4F)c3c2)CC1 [Compound A-99] | ≤ 100 | ≤ 300 | 
21 | C[C@@H](Nc1ccnc2cnc(C3(O)CCC(O)CC3)cc12)c1cccc(C(C)(F)F)c1F (single isomer, unassigned) [Compound B-87-P2] | 100 to 500 |  | > 1000
22 | CC(=O)N1CCC(O)(c2cc3c(N[C@H](C)c4cccc(C(F)F)c4F)ccnc3cn2)CC1 [Compound B-17] | ≤ 100 | ≤ 300 | 
23 | CC(=O)N1CCN(c2cc3c(N[C@H](C)c4cccc(C(F)(F)F)c4)ccnc3cn2)CC1 [Compound B-49] | ≤ 100 | ≤ 300 | 
24 | C[C@@H](Nc1ccnc2cnc(C3(O)CCN(CCO)CC3)cc12)c1cccc(C#N)c1F [Compound B-168] | 100 to 500 | > 1000 | 
25 | C[C@@H](Nc1ccnc2cnc(C3(O)CCC(O)CC3)cc12)c1cccc(C(F)(F)F)c1F (single isomer, unassigned) [Compound B-85-P1] | ≤ 100 | 300 to 1000 | 
26 | C[C@@H](Nc1ccnc2cnc(N3CCC(O)(CN)CC3)cc12)c1cccc(C(F)F)c1F [Compound B-75] | ≤ 100 | 300 to 1000 | 
27 | C[C@@H](Nc1ccnc2cnc(N3CCS(=O)(=O)CC3)cc12)c1cccc(C(F)F)c1F [Compound B-38] | ≤ 100 | ≤ 300 | 
28 | CC(=O)N1CCN(c2cc3c(N[C@H](C)c4cccc(C(F)F)c4F)ccnc3cn2)[C@@H](CO)C1 [Compound B-45] | ≤ 100 | ≤ 300 | 
29 | C[C@@H](Nc1ccnc2cnc(C3CC3)cc12)c1cccc(C(F)F)c1F [Compound B-1] | ≤ 100 | 300 to 1000 | 
30 | CC(=O)N1CCN(c2cc3c(N[C@H](C)c4cccc(C(F)F)c4F)ccnc3cn2)[C@@H](CC#N)C1 [Compound B-56] | ≤ 100 | ≤ 300 | 
31 | C[C@@H]1OCC2(CCN(c3cc4c(N[C@H](C)c5cccc(C(F)F)c5F)ccnc4cn3)CC2)[C@@H]1N [Compound B-79] | ≤ 100 | ≤ 300 | 
32 | CC(=O)N1CC=C(c2cc3c(N[C@H](C)c4cccc(C(F)F)c4F)ccnc3cn2)CC1 [Compound B-3] | ≤ 100 | ≤ 300 | 
